# In patent publication US20230398130A1, “METHODS AND COMPOSITIONS FOR DIFFERENTIATING STEM CELLS” (Massachusetts Institute of Technology, priority 2020, published 2023):
# Columns and labels:
# ISC-enriched organoids [1] = test: Primary screen, 384-well 2.5-D organoid differentiation (ENR+CD, 6 days): basal lysozyme secretion (LYZ.NS); assay type: cell-based, murine; conditions: for Dose.FC.LYZ.NS: FC vs plate median; for SSMD.LYZ.NS: strictly standardized mean difference
# Description: (§1) High-throughput screening.
# ISC-enriched organoids [2] = test: Primary screen, 384-well 2.5-D organoid differentiation (ENR+CD, 6 days, Target Selective Inhibitor Library, vs whole-plate median): ATP (CellTiter-Glo 3D, CTG); conditions: for Dose.FC.CTG: FC vs plate median; for SSMD.CTG: strictly standardized mean difference
# ISC-enriched organoids [3] = test: Primary screen, 384-well 2.5-D organoid differentiation (ENR+CD, 6 days): carbachol-induced lysozyme secretion (LYZ.S); assay type: cell-based, murine; conditions: for Dose.FC.LYZ.S: FC vs plate median; for Z.LYZ.S: standard z score; for SSMD.LYZ.S: strictly standardized mean difference
# Description: as §1
# [4] = Dose 0.08 uM, standard z score of FC
# [5] = Dose 0.40 uM, standard z score of FC
# [6] = Dose 2.00 uM, standard z score of FC
# [7] = Dose 10.00 uM, standard z score of FC
# [8] = Dose 0.08 uM, primary screen, standard z score
# [9] = Dose 0.40 uM, primary screen, standard z score
# [10] = Dose 2.00 uM, primary screen, standard z score
# [11] = Dose 10.00 uM, primary screen, standard z score
# [12] = primary screen, 1st of the 4 dose lines of the treatment (dose not given)
# [13] = primary screen, 2nd of the 4 dose lines of the treatment (dose not given)
# [14] = primary screen, 3rd of the 4 dose lines of the treatment (dose not given)
# [15] = primary screen, 4th of the 4 dose lines of the treatment (dose not given)
smiles,measurement,setting,value
CNC(=O)c1ccc(N2C(=S)N(c3ccc(C#N)c(C(F)(F)F)c3)C(=O)C2(C)C)cc1F [Enzalutamide (MDV3100)],Dose.FC.LYZ.NS,"ISC-enriched organoids [1]; Dose 0.08 uM, ENR+CD, 6 days",0.162 log 2 fold change
same,Z.LYZ.NS,ISC-enriched organoids [1]; [4],1.411
same,Dose.FC.LYZ.NS,"ISC-enriched organoids [1]; Dose 0.40 uM, ENR+CD, 6 days",0.166 log 2 fold change
same,Z.LYZ.NS,ISC-enriched organoids [1]; [5],1.446
same,Dose.FC.LYZ.NS,"ISC-enriched organoids [1]; Dose 2.00 uM, ENR+CD, 6 days",0.024 log 2 fold change
same,Z.LYZ.NS,ISC-enriched organoids [1]; [6],0.210
same,Dose.FC.LYZ.NS,"ISC-enriched organoids [1]; Dose 10.00 uM, ENR+CD, 6 days",0.094 log 2 fold change
same,Z.LYZ.NS,ISC-enriched organoids [1]; [7],0.820
same,Dose.FC.CTG,"ISC-enriched organoids [2]; Dose 0.08 uM, ENR+CD, 6 days",0.195 log 2 fold change
same,Z.CTG,ISC-enriched organoids [2]; [4],0.465
same,Dose.FC.CTG,"ISC-enriched organoids [2]; Dose 0.40 uM, ENR+CD, 6 days",0.256 log 2 fold change
same,Z.CTG,ISC-enriched organoids [2]; [5],0.611
same,Dose.FC.CTG,"ISC-enriched organoids [2]; Dose 2.00 uM, ENR+CD, 6 days",0.076 log 2 fold change
same,Z.CTG,ISC-enriched organoids [2]; [6],0.181
same,Dose.FC.CTG,"ISC-enriched organoids [2]; Dose 10.00 uM, ENR+CD, 6 days",0.146 log 2 fold change
same,Z.CTG,ISC-enriched organoids [2]; [7],0.348
same,Dose.FC.LYZ.S,"ISC-enriched organoids [3]; Dose 0.08 uM, ENR+CD, 6 days",0.176 log 2 fold change
same,Dose.FC.LYZ.S,"ISC-enriched organoids [3]; Dose 0.40 uM, ENR+CD, 6 days",0.276 log 2 fold change
same,Dose.FC.LYZ.S,"ISC-enriched organoids [3]; Dose 2.00 uM, ENR+CD, 6 days",0.077 log 2 fold change
same,Dose.FC.LYZ.S,"ISC-enriched organoids [3]; Dose 10.00 uM, ENR+CD, 6 days",0.076 log 2 fold change
O=C(Nc1ccccc1)N1CCN(c2nc(-c3ccccc3)ns2)CC1 [JNJ-1661010],Dose.FC.LYZ.NS,"ISC-enriched organoids [1]; Dose 0.08 uM, primary screen",0.122 log 2 fold change
same,Z.LYZ.NS,ISC-enriched organoids [1]; [8],1.066
same,Dose.FC.LYZ.NS,"ISC-enriched organoids [1]; Dose 0.40 uM, primary screen",0.075 log 2 fold change
same,Z.LYZ.NS,ISC-enriched organoids [1]; [9],0.653
same,Dose.FC.LYZ.NS,"ISC-enriched organoids [1]; Dose 2.00 uM, primary screen",0.103 log 2 fold change
same,Z.LYZ.NS,ISC-enriched organoids [1]; [10],0.897
same,Dose.FC.LYZ.NS,"ISC-enriched organoids [1]; Dose 10.00 uM, primary screen",0.047 log 2 fold change
same,Z.LYZ.NS,ISC-enriched organoids [1]; [11],0.406
same,SSMD.LYZ.NS,ISC-enriched organoids [1]; [12],0.805
same,SSMD.LYZ.NS,ISC-enriched organoids [1]; [13],0.332
same,SSMD.LYZ.NS,ISC-enriched organoids [1]; [14],0.332
same,SSMD.LYZ.NS,ISC-enriched organoids [1]; [15],0.237
same,Dose.FC.CTG,"ISC-enriched organoids [2]; Dose 0.08 uM, primary screen",−0.094 log 2 fold change
same,Z.CTG,ISC-enriched organoids [2]; [8],−0.225
same,Dose.FC.CTG,"ISC-enriched organoids [2]; Dose 0.40 uM, primary screen",−0.262 log 2 fold change
same,Z.CTG,ISC-enriched organoids [2]; [9],−0.625
same,Dose.FC.CTG,"ISC-enriched organoids [2]; Dose 2.00 uM, primary screen",−0.055 log 2 fold change
same,Z.CTG,ISC-enriched organoids [2]; [10],−0.131
same,Dose.FC.CTG,"ISC-enriched organoids [2]; Dose 10.00 uM, primary screen",−0.145 log 2 fold change
same,Z.CTG,ISC-enriched organoids [2]; [11],−0.346
same,SSMD.CTG,ISC-enriched organoids [2]; [12],−0.169
same,SSMD.CTG,ISC-enriched organoids [2]; [13],−0.659
same,SSMD.CTG,ISC-enriched organoids [2]; [14],−0.113
same,SSMD.CTG,ISC-enriched organoids [2]; [15],−0.309
same,Dose.FC.LYZ.S,"ISC-enriched organoids [3]; Dose 0.08 uM, primary screen",0.135 log 2 fold change
same,Dose.FC.LYZ.S,"ISC-enriched organoids [3]; Dose 0.40 uM, primary screen",0.041 log 2 fold change
same,Dose.FC.LYZ.S,"ISC-enriched organoids [3]; Dose 2.00 uM, primary screen",−0.063 log 2 fold change
same,Dose.FC.LYZ.S,"ISC-enriched organoids [3]; Dose 10.00 uM, primary screen",−0.068 log 2 fold change
same,Z.LYZ.S,ISC-enriched organoids [3]; [12],0.873
same,Z.LYZ.S,ISC-enriched organoids [3]; [13],0.263
same,Z.LYZ.S,ISC-enriched organoids [3]; [14],−0.408
same,Z.LYZ.S,ISC-enriched organoids [3]; [15],−0.441
same,SSMD.LYZ.S,ISC-enriched organoids [3]; [12],0.612
same,SSMD.LYZ.S,ISC-enriched organoids [3]; [13],0.250
same,SSMD.LYZ.S,ISC-enriched organoids [3]; [14],−0.454
same,SSMD.LYZ.S,ISC-enriched organoids [3]; [15],−0.449
CNC(=O)c1cc(Oc2ccc(NC(=O)Nc3cc(C(C)(C)C)nn3-c3ccc4ncccc4c3)c(F)c2)ccn1 [DCC-2036 (Rebastinib)],Dose.FC.LYZ.NS,"ISC-enriched organoids [1]; Dose 0.08 uM, ENR+CD, 6 days",0.259 log 2 fold change
same,Z.LYZ.NS,ISC-enriched organoids [1]; [4],2.256
same,Dose.FC.LYZ.NS,"ISC-enriched organoids [1]; Dose 0.40 uM, ENR+CD, 6 days",0.128 log 2 fold change
same,Z.LYZ.NS,ISC-enriched organoids [1]; [5],1.116
same,Dose.FC.LYZ.NS,"ISC-enriched organoids [1]; Dose 2.00 uM, ENR+CD, 6 days",0.073 log 2 fold change
same,Z.LYZ.NS,ISC-enriched organoids [1]; [6],0.637
same,Dose.FC.LYZ.NS,"ISC-enriched organoids [1]; Dose 10.00 uM, ENR+CD, 6 days",−0.209 log 2 fold change
same,Z.LYZ.NS,ISC-enriched organoids [1]; [7],−1.823
same,Dose.FC.CTG,"ISC-enriched organoids [2]; Dose 0.08 uM, ENR+CD, 6 days",0.216 log 2 fold change
same,Z.CTG,ISC-enriched organoids [2]; [4],0.516
same,Dose.FC.CTG,"ISC-enriched organoids [2]; Dose 0.40 uM, ENR+CD, 6 days",0.218 log 2 fold change
same,Z.CTG,ISC-enriched organoids [2]; [5],0.520
same,Dose.FC.CTG,"ISC-enriched organoids [2]; Dose 2.00 uM, ENR+CD, 6 days",−0.038 log 2 fold change
same,Z.CTG,ISC-enriched organoids [2]; [6],−0.091
same,Dose.FC.CTG,"ISC-enriched organoids [2]; Dose 10.00 uM, ENR+CD, 6 days",−0.322 log 2 fold change
same,Z.CTG,ISC-enriched organoids [2]; [7],−0.769
same,Dose.FC.LYZ.S,"ISC-enriched organoids [3]; Dose 0.08 uM, ENR+CD, 6 days",0.358 log 2 fold change
same,Dose.FC.LYZ.S,"ISC-enriched organoids [3]; Dose 0.40 uM, ENR+CD, 6 days",0.186 log 2 fold change
same,Dose.FC.LYZ.S,"ISC-enriched organoids [3]; Dose 2.00 uM, ENR+CD, 6 days",0.054 log 2 fold change
same,Dose.FC.LYZ.S,"ISC-enriched organoids [3]; Dose 10.00 uM, ENR+CD, 6 days",−0.244 log 2 fold change
